Bounds are passed on as bounds.

A word on the EC50: it is the concentration giving half of the maximal effect.

Assay [1] addresses T1, LXRβ ligand-binding domain (Homo sapiens, UniProt P55055, DUP175-175).
T1 construct: amino acids 156-461; NP009052; made in house; host or cells: E. coli
T1 sequence (P55055 with tags, fused parts or gaps DUP175-175 limits assumed): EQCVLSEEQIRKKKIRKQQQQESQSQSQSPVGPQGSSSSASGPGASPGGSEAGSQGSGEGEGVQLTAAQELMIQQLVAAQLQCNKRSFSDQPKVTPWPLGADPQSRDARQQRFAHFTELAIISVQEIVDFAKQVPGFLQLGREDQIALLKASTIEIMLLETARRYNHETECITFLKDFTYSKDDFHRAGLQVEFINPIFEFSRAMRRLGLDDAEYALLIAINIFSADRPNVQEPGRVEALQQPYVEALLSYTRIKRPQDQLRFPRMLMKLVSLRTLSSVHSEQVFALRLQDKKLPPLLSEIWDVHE
Kind of assay: TR-FRETβ activity assay (NCoA3 coactivator peptide recruitment). The assay is classed as biochemical. The note with it: TR-FRET, 1 μM 24(S)-25-epoxycholesterol prestimulation; read-out: FRETβ (EC50 range). The method, then: (§1) The tested compounds were usually dissolved, tested and stored as 20 mM stock solutions in DMSO. Since sulfonyl acetic acid derivatives tend to decarboxylate under these conditions, these stock solutions were prepared, tested and stored as 20 mM DMSO stock solutions containing 100 mM trifluoroacetic Acid (5 equivalents). Sulfonyl acetic acid derivatives are shelf stable as solid at rt for long time as reported by Griesbrecht et al. (Synlett 2010:374) or Faucher et al. (J. Med. Chem. 2004; 47:18).
Recombinant GST-LXRPβ ligand-binding domain (LBD; amino acids 156-461; NP009052; SEQ ID NO:4) was expressed in E. coli and purified via gluthatione-sepharose affinity chromatography. N-terminally biotinylated NCoA3 coactivator peptide (SEQ ID NO:7) was chemically synthesized (Eurogentec). Assays were done in 384 well format (final assay volume of 25 μL/well) in a Tris/HCl buffer (pH 6.8) containing KCl, bovine serum albumin, Triton-X-100 and 1 μM 24(S)-25-epoxycholesterol as LXR-prestimulating agonist. Assay buffer was provided and test articles (potential LXR inverse agonists) were titrated to yield final assay concentrations of 50 μM, 16.7 μM, 5.6 μM, 1.9 μM, 0.6 μM, 0.2 μM, 0.07 μM, 0.02 μM, 0.007 μM, 0.002 μM with one vehicle control. Finally, a detection mix was added containing anti GST-Tb cryptate (CisBio; 610SAXLB) and Streptavidin-XL665 (CisBio; 610SAXLB) as fluorescent donor and acceptor, respectively, as well as the coactivator peptide and LXRβ-LBD protein (SEQ ID NO:4). The reaction was mixed thoroughly, equilibrated for 1 h at 4° C. and vicinity of LXRβ and coactivator peptide was detected by measurement of fluorescence in a VictorX4 multiplate reader (PerkinElmer Life Science) using 340 nm as excitation and 615 and 665 nm as emission wavelengths. Assays were performed in triplicates.
Final Assay Concentrations of Components:
240 mM KCl, 1 μg/μL BSA, 0.002% Triton-X-100, […] anti GST-Tb cryptate, 2.5 ng/μL Streptavidin-XL665, coactivator peptide (400 nM), LXRβ protein (530 μg/mL, i.e. 76 nM).

Assay [2] addresses T2, full length (FL) LXRα (Homo sapiens, UniProt Q13133).
T2 construct: the full length (FL) proteins of LXRα (amino acids 1-447); NP005684; expressed in transfected cells; host or cells: HEK293
T2 sequence (Q13133 1-447): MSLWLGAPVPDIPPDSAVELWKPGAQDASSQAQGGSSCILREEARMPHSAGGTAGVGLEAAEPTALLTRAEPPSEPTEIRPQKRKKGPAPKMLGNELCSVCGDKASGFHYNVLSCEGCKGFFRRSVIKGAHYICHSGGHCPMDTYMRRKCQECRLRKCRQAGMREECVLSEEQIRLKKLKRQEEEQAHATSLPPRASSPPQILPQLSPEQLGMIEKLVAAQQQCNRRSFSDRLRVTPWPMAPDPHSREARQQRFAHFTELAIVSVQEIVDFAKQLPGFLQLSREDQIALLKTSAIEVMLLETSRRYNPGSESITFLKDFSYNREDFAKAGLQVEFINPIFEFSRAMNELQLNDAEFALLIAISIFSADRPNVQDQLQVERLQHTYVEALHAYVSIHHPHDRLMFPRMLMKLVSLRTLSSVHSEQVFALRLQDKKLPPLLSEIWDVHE
Nature of the assay: LXR Gal4 reporter transient transfection assay (FL-M2H Gal4α). The note with it: HEK293 cells, full length LXRα; read-out: FL-M2H Gal4α (EC50 range). The assay is classed as cell-based. The method, then:
as §1
(§2) LXR Gal4 Reporter Transient Transfection Assays
(§3) LXRα and LXRβ activity status was determined via detection of interaction with coactivator and corepressor proteins in mammalian two-hybrid experiments (M2H). For this, via transient transfection the full length (FL) proteins of LXRα (amino acids 1-447; NP005684; SEQ ID NO:1) or LXRβ-(amino acids 1-461; NP009052; SEQ ID NO:2) or the ligand-binding domains (LBD) of LXRα (amino acids 155-447 SEQ ID NO:3) or LXRβ (amino acids 156-461; SEQ ID NO:4) were expressed from pCMV-AD (Stratagene) as fusions to the transcriptional activation domain of NFkB. As cofactors, domains of either the steroid receptor coactivator 1 (SRC1; amino acids 552-887; SEQ ID NO:5) or of the corepressor NCoR (amino acids 1906-2312; NP006302; SEQ ID NO:6) were expressed as fusions to the DNA binding domain of the yeast transcription factor GAL4 (from pCMV-BD; Stratagene). Interaction was monitored via activation of a coexpressed Firefly Luciferase Reporter gene under control of a promoter containing repetitive GAL4 response elements (vector pFRLuc; Stratagene). Transfection efficiency was controlled via cotransfection of constitutively active pRL-CMV Renila reniformis luciferase reporter (Promega). HEK293 cells were grown in minimum essential medium (MEM) with 2 mM L-glutamine and Earle's balanced salt solution supplemented with 8.3% fetal bovine serum, 0.1 mM non-essential amino acids, 1 mM sodium pyruvate, at 37° C. in 5% CO2. 3.5×10^4 cells/well were plated in 96-well cell culture plates in growth medium supplemented with 8.3% fetal bovine serum for 16-20 h to ˜90% confluency. For transfection, medium was taken off and LXR and cofactor expressing plasmids as well as the reporter plasmids are added in 30 μL OPTIMEM/well including polyethylene-imine (PEI) as vehicle. Typical amounts of plasmids transfected/well: pCMV-AD-LXR (5 ng), pCMV-BD-cofactor (5 ng), pFR-Luc (100 ng), pRL-CMV (0.5 ng). Compound stocks were prepared in DMSO, prediluted in MEM to a total volume of 120 μL, and added 4 h after addition of the transfection mixture (final vehicle concentration not exceeding 0.2%). Cells were incubated for additional 16 h, lysed for 10 min in 1× Passive Lysis Buffer (Promega) and Firefly and Renilla luciferase activities were measured sequentially in the same cell extract using buffers containing D-luciferine and coelenterazine, respectively. Measurements of luminescence were done in a BMG-luminometer.

Assay [3] has as its target T3, full length (FL) LXRβ (Homo sapiens, UniProt P55055, DUP175-175).
T3 construct: the full length (FL) proteins of LXRα (amino acids 1-447); NP005684; NP009052; expressed in transfected cells; host or cells: HEK293
T3 sequence (P55055 with tags, fused parts or gaps DUP175-175): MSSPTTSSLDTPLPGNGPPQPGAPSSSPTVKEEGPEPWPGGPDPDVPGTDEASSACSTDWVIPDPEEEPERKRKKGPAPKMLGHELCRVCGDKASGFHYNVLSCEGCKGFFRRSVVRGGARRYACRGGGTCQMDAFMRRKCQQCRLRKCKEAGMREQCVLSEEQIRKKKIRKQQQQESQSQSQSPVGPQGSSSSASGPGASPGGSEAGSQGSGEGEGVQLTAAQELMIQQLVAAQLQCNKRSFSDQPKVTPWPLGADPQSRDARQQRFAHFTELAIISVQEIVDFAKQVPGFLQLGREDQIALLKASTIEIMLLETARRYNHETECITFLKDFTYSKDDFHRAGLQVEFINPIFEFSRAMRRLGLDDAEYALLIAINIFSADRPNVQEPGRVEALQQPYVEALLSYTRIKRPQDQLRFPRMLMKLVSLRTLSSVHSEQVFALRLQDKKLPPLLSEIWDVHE
Nature of the assay: LXR Gal4 reporter transient transfection assay (FL-M2H Gal4β). Format: cell-based. The note with it: HEK293 cells, full length LXRβ; read-out: FL-M2H Gal4β (EC50 range). The method, then:
as §1, §2, §3

As for `Cc1ccc(S(=O)(=O)n2c(-c3cccc([C@@H]4C[C@H]4C(=O)O)c3)c(-c3ccsc3C#N)c3ncccc32)cc1` (relative stereo) [Example 4, trans-2-(3-(3-(2-Cyanothioahen-3-yl)-1-tosyl-1H-pyrrolo[3,2-b]pyridin-2-yl)phenyl)cyclopropane-1-carboxylic Acid], the half-maximal effective concentration (EC50) in assay [1] was 1000 to 10000 nM; in assay [2], < 100 nM; in assay [3], 100 to 1000 nM.

Turning to `Cc1cccc(C#N)c1-c1c(-c2cccc(-c3ccc(C(=O)O)cc3Cl)c2)n(S(=O)(=O)c2ccc(C(F)F)cc2)c2ccc(F)cc12` (single isomer, unassigned) [41/1, 2-chloro-3′-(3-(2-cyano-6-methylphenyl)-1-((4-(difluoro-methyl)phenyl)sulfonyl)-5-fluoro-1H-indol-2-yl)-[1,1′-biphenyl]-4-carboxylic Acid], the EC50 in assay [1], in assay [2] and in assay [3] was < 100 nM in each case.

As to `Cc1cccc(C#N)c1-c1c(-c2cccc(-c3ccc(C(=O)O)cc3Cl)c2)n(S(=O)(=O)c2ccc(C(F)F)cc2)c2ccc(F)cc12` (single isomer, unassigned) [41/2, 2-chloro-3′-(3-(2-cyano-6-methylphenyl)-1-((4-(difluoro-methyl)phenyl)sulfonyl)-5-fluoro-1H-indol-2-yl)-[1,1′-biphenyl]-4-carboxylic Acid], the concentration giving a half-maximal response (EC50) in assay [1] and in assay [2] was < 100 nM each time.

Turning to `COC(=O)c1ccc(-c2cccc(-c3c(-c4c(C)cccc4C#N)c4cc(F)ccc4n3S(=O)(=O)c3ccc(C(F)F)cc3)c2)c(Cl)c1` [1/122], the EC50 in assay [1] is 100 to 1000 nM; in assay [2], < 100 nM; in assay [3], < 100 nM.

For `N#Cc1cccc(C#N)c1-c1c(-c2cccc(Br)c2)n(S(=O)(=O)c2ccc(C(F)F)cc2)c2ccc(F)cc12` [1/139], the results for the concentration giving a half-maximal response (EC50) in assay [1], in assay [2] and in assay [3] were 100 to 1000 nM, < 100 nM and < 100 nM, respectively.

Turning to `Cc1ccc(S(=O)(=O)n2c(-c3cccc(-c4ccc(CN)cc4Cl)c3)c(-c3ccsc3C#N)c3cc(F)ccc32)cc1` [2/1], the concentration giving a half-maximal response (EC50) in assay [1], in assay [2] and in assay [3] was 100 to 1000 nM throughout.

For the molecule `Cc1ccc(S(=O)(=O)n2c(-c3cccc(-c4ccc(C(C)(C)N)cc4Cl)c3)c(-c3ccsc3C#N)c3cc(F)ccc32)cc1` [2/2], the EC50 in assay [1], in assay [2] and in assay [3] was 100 to 1000 nM throughout.

Take `Cc1ccc(S(=O)(=O)n2c(-c3cccc(-c4cc(F)c(CO)c(S(C)(=O)=O)c4)c3)c(-c3ccsc3C#N)c3cc(F)ccc32)cc1` [2/16]: the EC50 in assay [1], in assay [2] and in assay [3] was < 100 nM in each case.

For the molecule `N#Cc1sccc1-c1c(-c2cccc(N3CC(C(=O)O)C3)c2)n(S(=O)(=O)c2ccc(OC(F)F)cc2)c2ccc(F)cc12` [3/11], the EC50 in assay [1] is 1000 to 10000 nM; in assay [2], 100 to 1000 nM.

For the molecule `CC(O)(C(=O)O)c1ccc(-c2cccc(-c3c(-c4c(C#N)cccc4C#N)c4cc(F)ccc4n3S(=O)(=O)c3ccc(C(F)F)cc3)c2)c(Cl)c1` (stereo not shown) [11/60], the concentration for a half-maximal effect (EC50) in assay [2] and in assay [3] was < 100 nM throughout.

On to `Cc1ccc(S(=O)(=O)n2c(-c3cccc(-c4ccc(-c5nnn[nH]5)cc4Cl)c3)c(-c3ccsc3C#N)c3cc(F)ccc32)cc1` [Example 37, 3-(2-(2′-Chloro-4′-(1H-tetrazol-5-yl)-[1,1′-biphenyl]-3-yl)-5-fluoro-1-tosyl-1H-indol-3-yl)thiophene-2-carbonitrile], for which the concentration for a half-maximal effect (EC50) was 100 to 1000 nM in assay [1] and < 100 nM in assay [3].

As for `N#Cc1cccc(C#N)c1-c1c(-c2cccc(-c3ccc(C(=O)O)cc3Cl)c2)n(S(=O)(=O)c2ccc(C(F)F)cc2)c2cc(F)c(O)cc12` [Example 44, 2-Chloro-3′-(3-(2,6-dicyanophenyl)-1-((4-(difluoromethyl)phenyl)sulfonyl)-6-fluoro-5-hydroxy-1H-indol-2-yl)-[1,1′-biphenyl]-4-carboxylic Acid], the EC50 in assay [1] was 100 to 1000 nM; in assay [3], < 100 nM.
